Test results: patent publication US7288567B2, “Inhibitors of histone deacetylase” (Methylgene Inc., priority 2000, dated 2007)

Experiments:
[1] = test system: histone deacetylase enzyme in nuclear extracts from H446 cells (pooled HDACs); assay: Histone deacetylase inhibition, H446 nuclear extracts (pooled HDACs); format: biochemical, human; conditions: for pooled HDACs percent inhibition: percent inhibition at 20 μM (footnote); for IC50: H446 nuclear extract, [3H]-acetylated histone substrate
Method: HDAC inhibitors were screened against histone deacetylase enzyme in nuclear extracts prepared from the human small cell lung cancer cell line H446 (ATTC HTB-171) and against a cloned recombinant human HDAC-1 enzyme expressed and purified from a Baculovirus insect cell expression system.
(§1) For deacetylase assays, 20,000 cpm of the [^3H]-metabolically labeled acetylated histone substrate (M. Yoshida et al., J. Biol. Chem. 265(28): 17174-17179 (1990)) was incubated with 30 μg of H446 nuclear extract or an equivalent amount of the cloned recombinant hHDAC-1 for 10 minutes at 37° C. The reaction was stopped by adding acetic acid (0.04 M, final concentration) and HCl (250 mM, final concentration). The mixture was extracted with ethyl acetate and the released [^3H]-acetic acid was quantified by scintillation counting. For inhibition studies, the enzyme was preincubated with compounds at 4° C. for 30 minutes prior to initiation of the enzymatic assay. IC50 values for HDAC enzyme inhibitors were determined by performing dose response curves with individual compounds and determining the concentration of inhibitor producing fifty percent of the maximal inhibition.

[2] = molecular target: T1, recombinant human HDAC-1 enzyme (rHDAC-1) (Homo sapiens, UniProt Q13547); assay: Histone deacetylase inhibition, recombinant human HDAC-1; format: biochemical; conditions: cloned recombinant human HDAC-1, Baculovirus insect cell expression; read-out: rHDAC-1 IC50
T1 construct: made in house; host or cells: Baculovirus insect cell expression system
Method: as §1, with “The” for “For deacetylase assays, 20,000 cpm of the [^3H]-metabolically labeled acetylated histone substrate (M. Yoshida et al., J. Biol. Chem. 265(28): 17174-17179 (1990)) was incubated with 30 μg of H446 nuclear extract or an equivalent amount of the cloned recombinant hHDAC-1 for 10 minutes at 37° C. The”

T1 sequence (Q13547 whole entry): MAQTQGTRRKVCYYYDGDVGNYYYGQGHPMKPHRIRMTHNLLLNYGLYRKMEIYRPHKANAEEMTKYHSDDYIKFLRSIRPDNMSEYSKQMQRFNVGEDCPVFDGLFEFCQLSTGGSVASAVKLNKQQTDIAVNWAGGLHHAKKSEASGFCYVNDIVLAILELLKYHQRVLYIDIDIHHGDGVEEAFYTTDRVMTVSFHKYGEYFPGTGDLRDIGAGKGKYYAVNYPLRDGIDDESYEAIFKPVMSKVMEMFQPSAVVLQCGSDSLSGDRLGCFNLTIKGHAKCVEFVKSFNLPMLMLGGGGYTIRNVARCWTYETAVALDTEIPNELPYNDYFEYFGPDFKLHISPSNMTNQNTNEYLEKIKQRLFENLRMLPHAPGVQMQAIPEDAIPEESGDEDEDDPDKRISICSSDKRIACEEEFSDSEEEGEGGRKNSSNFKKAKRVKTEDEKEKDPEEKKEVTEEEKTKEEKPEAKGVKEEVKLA

Compound	pooled HDACs percent inhibition [1] [%]	IC50 [2] [nM]	IC50 [1] [nM]	pooled HDACs percent inhibition @ 1 μM [1] [%@ 1 μM]
O=C(NCCCCCCC(=O)c1ccccc1)Nc1ccccc1O [Compound 253]	0	> 20000		
CC(CCC(=O)NO)CC(C)C(=O)c1ccc(N(C)C)cc1 (stereo not shown) [Compound 62, N-Hydroxy-4-Methyl-6-[4-(N,N-dimethylamino)benzoyl]heptanamide]			1100	
CC(=O)SCC(=O)CCCCCCC(=O)c1ccccc1 [Compound 159a, 1-Acetylthio-2,9-dioxo-9-phenyl-nonane]		100	50	
CC(/C=C/C(=O)NO)=C\C(C)Cc1ccc(N(C)C)cc1 (stereo not shown) [Compound 38, N-Hydroxy-4,6-dimethyl-7-[4-(N,N-dimethylamino)phenyl]-2,4-heptadienamide]			> 20000	
O=C(CCCCCC/C(=N\O)c1cc2ccccc2s1)NO [Compound 99, N-Hydroxy-8-(Z)-oximino-8-(2-benzo[b]thiophene)octanamide]		8	35	
O=C(CCCCCCC(=NO)c1cc2ccccc2o1)NO (mixture of isomers) [Compound 98, N-Hydroxy-8-(E)-oximino-8-(2-benzofuryl)octanamide]		30	40	
CC(=O)SCC(=O)CCCCCCC(=O)c1cc2ccccc2n1C [Compound 165, 1-Acetylthio-2,9-dioxo-9-(2-(N-methyl)indolyl)-nonane]		90	40	
O=C(CCCCCCC(=O)c1ccc(Nc2nccs2)cc1)NO [Compound 138e, N-Hydroxy-7-[4-(N-2-aminothiazolyl)benzoyl]heptanamide]		4	20	
COc1ccc(C(OC)C(C)(C)CCCCC(=O)NO)cc1 (stereo not shown) [Compound 28, N-Hydroxy-6,6-dimethyl-7-methoxy-7-(4-methoxyphenyl)heptanamide]		100	4000	
Nc1ccccc1NC(=O)CCCCCCC(=O)c1ccc(Br)cc1 [Compound 114, N-(2-Aminophenyl)-7-(4-bromobenzoyl)heptanamide]		6300	> 20000	
COc1ccc(/C(CCCCCCC(=O)NO)=N/O)cc1 [Compound 96, N-Hydroxy-8-(E)-oximino-8-(4-methoxyphenyl)octanamide]		35	100	
Nc1ccccc1NC(=O)CCCCCCC(=NO)c1ccc2ccccc2c1 (mixture of isomers) [Compound 106, N-(2-Aminophenyl)-8-(E)-oximino-8-(2-naphthyl)octanamide]		4000	> 20000	
O=C(CS)CCCCCCC(=O)c1ccccc1 [Compound 159e, 1-Mercapto-2,9-dioxo-9-phenyl-nonane]		50	50	
COc1ccc(C(=O)C(C)(C)CCCCC(=O)NO)cc1 [Compound 58, N-Hydroxy-6-methyl-6-(4-methoxybenzoyl)-heptanamide]		250	3000	
COC(C/C=C/C=C/C(=O)Nc1ccccc1N)c1ccccc1 (stereo not shown) [Compound 19, N-(2-Aminophenyl)-7-methoxy-7-phenyl-2,4-heptadienamide]		< 20000	> 100000	
CC(=O)SCC(=O)CCCCCC(=O)c1cc2ccccc2s1 [Compound 160, 1-Acetylthio-2,8dioxo-8-(2-benzo[b]thiophene)-octane]		130	80	
O=C(CCCCCCC(=O)c1ccccc1)CSC(=O)c1ccccc1 [Compound 159f, 1-Benzoylthio-2,9-dioxo-9-phenyl-nonane]		700	350	
O=C(CCCCCn1cnc2ccccc2c1=O)NO [Compound 238a, N-Hydroxy-6-[3-(4-Oxo-4H-quinazolinyl)]hexanamide]		50		0
O=C(CCCCCCC(=O)c1ccccn1)NO [Compound 141a2, N-Hydroxy-7-[(2-pyridyl)carbonyl]heptanamide]				12
O=C(CCCCCCC(=O)c1ccc(N2CCOCC2)cc1)NO [Compound 138i, N-Hydroxy-7-[4-(N-morpholinyl)benzoyl]heptanamide]		33	100	
Nc1ccccc1NC(=O)CCCCCCC(=O)c1ccc(-c2ccsc2)cc1 [Compound 117, N-(2-Aminophenyl)-7-[4-(3-thiophenyl)benzoyl]heptanamide]	0	9000		
O=C(CCCCCCC(=O)c1cc2ccccc2o1)NO [Compound 52l, N-hydroxy-7-(2-benzofuran)carbonylheptanamide]		30	300	

Compound	pooled HDACs percent inhibition [1] [%]	IC50 [2] [nM]	IC50 [1] [nM]	pooled HDACs percent inhibition @ 1 μM [1] [%@ 1 μM]
Nc1ccccc1NC(=O)CCCCCCC(=O)c1ccc(-c2cccnc2)cc1 [Compound 127, N-(2-Aminophenyl)-7-[4-(3-pyridyl)benzoyl]heptanamide]	0	10300		
CC(=O)SCC(=O)CCCCCCC(=O)c1cc2ccccc2[nH]1 [Compound 167, 1-Acetylthio-2,9-dioxo-9-(2-indolyl)-nonane]		400	300	
Cn1c(C(=O)CCCCCCC(=O)CS)cc2ccccc21 [Compound 166, 1-Mercapto-2,9-dioxo-9-(2-N-methylindolyl)-nonane]		420	50	
O=C(CCCCCC(=O)c1cc2ccccc2[nH]1)NO [Compound 112, N-Hydroxy-6-[(2-indolyl)carbonyl]hexanamide]		39	250	
Cn1c(C(=O)CCCCCCC(=O)NO)cc2ccccc21 [Compound 103, N-Hydroxy-7-[2-((N-methyl)indolyl)carbonyl]heptanamide]		50	100	
CC(CCCCCC(=O)c1ccc2ccccc2c1)C(=O)NO (stereo not shown) [Compound 175, N-Hydroxy-2-methyl-7-(2-naphthoyl)heptanamide]			2500	
O=C(CS)CCCCCCC(=O)c1cc2ccccc2s1 [Compound 163, 1-Mercapto-2,9-dioxo-9-(2-benzo[b]thiophene)-nonane]		10	40	
O=C(CCCCCCC(=O)c1ccc(C(F)(F)F)cc1)NO [Compound 52c, N-hydroxy-7-(4-trifluoromethylbenzoyl)heptanamide]		60	550	
O=C(CCCCCCC(=O)c1ccc(-c2ccccc2)cc1)Nc1ccccc1O [Compound 74, N-(2-Hydroxyphenyl)-7-[(4-biphenyl)carbonyl]heptanamide]	0	7800		
Nc1ccccc1NC(=O)CCCCCn1nnc2ccccc2c1=O [Compound 239b]	14	8100		
CC(CCCCC(=O)c1ccc2ccccc2c1)CC(=O)NO (stereo not shown) [Compound 199, N-Hydroxy-3-methyl-7-(2-naphthoyl)heptanamide]		30	80	
O=C(CCCCCC/C(=N\O)c1ccc(-c2ccccc2)cc1)NO [(E)-51h, N-Hydroxy-8-(E)-oximino-8-(4-biphenyl)octanamide]	99			
COc1ccc(C(OC)C(C)(C)/C=C/C=C/C(=O)Nc2ccccc2N)cc1 (stereo not shown) [Compound 27, N-(2-Aminophenyl)-6,6-dimethyl-7-methoxy-7-(4-methoxyphenyl)-2,4-heptadienamide]			> 100000	
O=C(CCCCCCC(=O)c1ccc(Br)cc1)NO [Compound 52d, N-hydroxy-7-(4-bromobenzoyl)heptanamide]			50	
Nc1ccccc1NC(=O)CCCCCn1cnc2ccccc2c1=O [Compound 239a, N-(2-Aminophenyl)-6-[3-(4-oxo-4H-quinazolinyl)]hexanamide]	0			
O=C(CCCCCC/C(=N\O)c1ccc2ccccc2c1)NO [Compound 97, N-Hydroxy-8-(E)-oximino-8-(2-naphthyl)octanamide]			30	
O=C(CCCCCC/C(=N/O)c1ccc(-c2ccccc2)cc1)NO [(Z)-51h, N-Hydroxy-8-(Z)-oximino-8-(4-biphenyl)octanamide]	75			
O=C(CCCCCCC(=O)c1cccs1)NO [Compound 52k, N-hydroxy-7-(2-thiophene)carbonylheptanamide]			900	
O=C(CCCCCCC(=O)c1ccc(N2CCCCC2)cc1)NO [Compound 138h, N-Hydroxy-7-[4-(1-piperidinyl)benzoyl]heptanamide]			48	
COC(c1ccc(N(C)C)cc1)C(C)/C=C(C)/C=C/C(=O)NO (stereo not shown) [Compound 33, N-Hydroxy-4,6-dimethyl-7-methoxy-7-[4-(N,N-dimethylamino)phenyl]-2,4-heptadienamide]			> 10000	
Nc1ccccc1NC(=O)CCCCCN1C(=O)c2cccc3cc(O)cc(c23)C1=O [Compound 251a, N-(2-Aminophenyl)-6-[2-(5-hydroxy-1,3-dioxo-1H,3H-benzo[de]isoquinolinyl)]hexanamide]	0			
COC(C/C=C/C=C/C(=O)NO)c1ccccc1 (stereo not shown) [Compound 12, N-Hydroxy-7-methoxy-7-phenyl-2,4-heptadienamide]			9400	
